# Results taken from patent publication US20240018122A1, “PYRIDAZINYL AMINO DERIVATIVES AS ALK5 INHIBITORS” (CHIESI FARMACEUTICI S.P.A., priority 2020, published 2024).
# Target: human ALK5 (Homo sapiens (Human), UniProt P36897)
# Test: ADP-GLO Kinases assay, inhibitory activity on ALK5
# Type: biochemical
# Conditions: not given
# Protocol: The enzymatic activity of compounds of the present invention was monitored measuring the formation of ADP using the ADP-GLO Kinases assay. Following the incubation of the purified enzyme, a substrate and ATP, the produced ADP was converted into ATP, which in turn was converted into light by Ultra-Glo Luciferase. The luminescent signal positively correlated with ADP amount and kinase activity. […] The assay was performed in 384-well format and was validated using a selection of reference compounds that was tested in 11 point concentration-response curve.
# human ALK5, sequence (P36897 80-503 limits assumed): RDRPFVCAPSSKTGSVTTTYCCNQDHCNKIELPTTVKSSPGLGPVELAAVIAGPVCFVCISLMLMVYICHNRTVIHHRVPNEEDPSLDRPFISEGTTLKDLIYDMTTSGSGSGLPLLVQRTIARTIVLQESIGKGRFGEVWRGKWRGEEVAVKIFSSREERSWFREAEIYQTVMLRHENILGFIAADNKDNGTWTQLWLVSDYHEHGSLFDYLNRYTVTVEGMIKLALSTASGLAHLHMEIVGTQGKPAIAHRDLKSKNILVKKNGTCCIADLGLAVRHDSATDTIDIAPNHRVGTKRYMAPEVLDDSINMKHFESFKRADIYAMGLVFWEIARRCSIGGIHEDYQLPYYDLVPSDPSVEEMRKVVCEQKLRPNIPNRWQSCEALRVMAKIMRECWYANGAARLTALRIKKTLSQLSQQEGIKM
row,Structure (SMILES),IC50 [nM]
1,"CN1CC2(CCN(C(=O)Oc3ccc4c(Nc5cnnc(-c6cc(Cl)ccc6F)c5)ccnc4c3)C2)C1 [Example 119, 4-{[6-(5-Chloro-2-Fluorophenyl)Pyridazin-4-Yl]Amino}Quinolin-7-Yl 2-Methyl-2,6-Diazaspiro[3.4]Octane-6-Carboxylate]",1 to 5

# Same assay, conditions: purified recombinant human ALK5 2.6 nM, TGFβ1 peptide substrate, 25° C, 150 min incubation, ADP-Glo detection; read-out: ALK5 IC50
row,Structure (SMILES),IC50 [nM]
1,"COC(=O)NCCN1CCN(CCC(=O)Nc2cc(Nc3cc(-c4cc(Cl)ccc4F)nnc3C)ccn2)CC1 [Example 82, Methyl N-[2-(4-{2-[(4-{[6-(5-Chloro-2-Fluorophenyl)-3-Methylpyridazin-4-Yl]Amino}Pyridin-2-Yl)Carbamoyl]Ethyl}Piperazin-1-Yl)Ethyl]Carbamate]",< 1
2,"NCCN1CCN(CCOc2ccc3c(Nc4cnnc(-c5cc(Cl)ccc5F)c4)ccnc3c2)CC1 [Example 66, 7-{2-[4-(2-Aminoethyl)Piperazin-1-Yl]Ethoxy}-N-[6-(5-Chloro-2-Fluorophenyl)Pyridazin-4-Yl]Quinolin-4-Amine]",< 1
3,"Cc1nnc(-c2cc(Cl)ccc2F)cc1Nc1ccnc(NC(=O)CCN2CCN(C)C(C(=O)OC3CC3)C2)c1 (stereo not drawn) [Example 127, Cyclopropyl 4-{2-[(4-{[6-(5-Chloro-2-Fluorophenyl)-3-Methylpyridazin-4-Yl]Amino}Pyridin-2-Yl)Carbamoyl]Ethyl}-1-Methylpiperazine-2-Carboxylate]",< 1
4,"Cc1nnc(-c2cc(Cl)ccc2F)cc1Nc1ccnc(NC(=O)CCN2CCN(CCNS(C)(=O)=O)CC2)c1 [Example 136, N-(4-{[6-(5-Chloro-2-Fluorophenyl)-3-Methylpyridazin-4-Yl]Amino}Pyridin-2-Yl)-3-[4-(2-Methanesulfonamidoethyl)Piperazin-1-Yl]Propanamide]",< 1
5,"CN(C)CCN1CCN(CCOc2ccc3c(Nc4cnnc(-c5cc(Cl)ccc5F)c4)ccnc3c2)CC1 [Example 68, N-[6-(5-Chloro-2-Fluorophenyl)Pyridazin-4-Yl]-7-[2-[4-[2-(Dim Ethylamino)Ethyl]Piperazin-1-Yl]Ethoxy]Quinolin-4-Amine]",< 1
6,"COC(=O)CC1CN(C)CCN1CCC(=O)Nc1cc(Nc2cc(-c3cc(Cl)ccc3F)nnc2C)ccn1 (stereo not drawn) [Example 101, methyl 2-(1-{2-[(4-{[6-(5-chloro-2-fluorophenyl)-3-methylpyridazin-4-yl]amino}pyridin-2-yl)carbamoyl]ethyl}-4-methylpiperazin-2-yl)acetate]",< 1
7,"Cc1nnc(-c2cc(Cl)ccc2F)cc1Nc1ccnc(NC(=O)CCN2CCC(O)CC2)c1 [Example 140, N-(4-{[6-(5-Chloro-2-Fluorophenyl)-3-Methylpyridazin-4-Yl]Amino}Pyridin-2-Yl)-3-(4-Hydroxypiperidin-1-Yl)Propanamide]",< 1
8,"Cc1nnc(-c2cc(Cl)ccc2F)cc1Nc1ccnc(NC(=O)CCN2CCS(=O)(=O)CC2)c1 [Example 132, N-(4-{[6-(5-Chloro-2-Fluorophenyl)-3-Methylpyridazin-4-Yl]Amino}Pyridin-2-Yl)-3-(1,1-Dioxo-11,6-Thiomorpholin-4-Yl)Propanamide]",< 1
9,"CS(=O)(=O)NCCN1CCN(CCOc2ccc3c(Nc4cnnc(-c5cc(Cl)ccc5F)c4)ccnc3c2)CC1 [Example 67, N-[2-(4-{2-[(4-{[6-(5-Chloro-2-Fluorophenyl)Pyridazin-4-Yl]Amino}Quinolin-7-Yl)Oxy]Ethyl}Piperazin-1-Yl)Ethyl]Methanesulfonamide]",< 1
10,"O=C(CCN1CCNCC1)Nc1cc(Nc2cnnc(-c3cc(Cl)ccc3F)c2)ccn1 [Example 2, N-(4-{[6-(5-Chloro-2-Fluorophenyl)Pyridazin-4-Yl]Amino}Pyridin-2-Yl)-3-(Piperazin-1-Yl)Propanamide]",< 1
11,"Cc1nnc(-c2cc(Cl)ccc2F)cc1Nc1ccnc(NC(=O)CCN2CC3CC2CN3C)c1 (stereo not drawn) [Example 121, N-(4-{[6-(5-Chloro-2-Fluorophenyl)-3-Methylpyridazin-4-Yl]Amino}Pyridin-2-Yl)-3-{5-Methyl-2,5-Diazabicyclo[2.2.1]Heptan-2-Yl}Propanamide]",< 1
12,"COC(=O)C1CN(C)CCN1CCC(=O)Nc1cc(Nc2cc(-c3cc(Cl)ccc3F)nnc2C)ccn1 (stereo not drawn) [Example 99, Methyl 1-{2-[(4-{[6-(5-Chloro-2-Fluorophenyl)-3-Methylpyridazin-4-Yl]Amino}Pyridin-2-Yl)Carbamoyl]Ethyl}-4-Methylpiperazine-2-Carboxylate]",< 1
13,"CNCCN1CCN(CCC(=O)Nc2cc(Nc3cc(-c4cc(Cl)ccc4F)nnc3C)ccn2)CC1 [Example 104, N-(4-{[6-(5-Chloro-2-Fluorophenyl)-3-Methylpyridazin-4-Yl]Amino}Pyridin-2-Yl)-3-{4-[2-(Methylamino)Ethyl]Piperazin-1-Yl}Propanamide]",< 1
14,"CN1CCC(CCNC(=O)c2cc3c(Nc4cnnc(-c5cc(Cl)ccc5F)c4)ccnc3[nH]2)CC1 [Example 27, 4-{[6-(5-Chloro-2-Fluorophenyl)Pyridazin-4-Yl]Amino}-N-[2-(1-Methylpiperidin-4-Yl)Ethyl]-1H-Pyrrolo[2,3-b]Pyridine-2-Carboxamide]",< 1
15,"Cc1nnc(-c2cc(Cl)ccc2F)cc1Nc1ccnc(NC(=O)CCN2CCN(C)C(C(=O)OC3COC3)C2)c1 (stereo not drawn) [Example 129, oxetan-3-yl 4-{2-[(4-{[6-(5-chloro-2-fluorophenyl)-3-methylpyridazin-4-yl]amino}pyridin-2-yl)carbamoyl]ethyl}-1-methylpiperazine-2-carboxylate]",< 1
16,"Cc1nnc(-c2cc(Cl)ccc2F)cc1Nc1ccnc2cc(OC(=O)N3CCN(CCC4CCN(C)CC4)CC3)ccc12 [Example 81, 4-{[6-(5-Chloro-2-Fluorophenyl)-3-Methylpyridazin-4-Yl]Amino}Quinolin-7-Yl 4-[2-(1-Methylpiperidin-4-Yl)Ethyl]Piperazine-1-Carboxylate]",< 1
17,"Cc1nnc(-c2cc(Cl)ccc2F)cc1Nc1ccnc(NC(=O)CCN2CCN(C)C(C(=O)O)C2)c1 (stereo not drawn) [Example 95, 4-{2-[(4-{[6-(5-chloro-2-fluorophenyl)-3-methylpyridazin-4-yl]amino}pyridin-2-yl)carbamoyl]ethyl}-1-methylpiperazine-2-carboxylic acid]",< 1
18,"OCCN1CCN(CCOc2ccc3c(Nc4cnnc(-c5cc(Cl)ccc5F)c4)ccnc3c2)CC1 [Example 72, 2-(4-{2-[(4-{[6-(5-Chloro-2-Fluorophenyl)Pyridazin-4-Yl]Amino}Quinolin-7-Yl)Oxy]Ethyl}Piperazin-1-Yl)Ethan-1-Ol]",< 1
19,"Cc1nnc(-c2cc(Cl)ccc2F)cc1Nc1ccnc(NC(=O)CCN2CCN(C)C(C(=O)OC(C)C)C2)c1 (stereo not drawn) [Example 126, Propan-2-Yl 4-{2-[(4-{[6-(5-Chloro-2-Fluorophenyl)-3-Methylpyridazin-4-Yl]Amino}Pyridin-2-Yl)Carbamoyl]Ethyl}-1-Methylpiperazine-2-Carboxylate]",< 1
20,"Cc1nnc(-c2cc(Cl)ccc2F)cc1Nc1ccnc(NC(=O)CN2CCN(CCN)CC2)c1 [Example 108, 2-[4-(2-Aminoethyl)Piperazin-1-Yl]-N-(4-{[6-(5-Chloro-2-Fluorophenyl)-3-Methylpyridazin-4-Yl]Amino}Pyridin-2-Yl)Acetamide]",< 1

# The remaining lines, values ahead:
row,IC50 [nM],Structure (SMILES)
1,< 1,"Cc1nnc(-c2cc(Cl)ccc2F)cc1Nc1ccnc(NC(=O)N2CCC3(CCN(C)C3)CC2)c1 [Example 150, N-(4-{[6-(5-Chloro-2-Fluorophenyl)-3-Methylpyridazin-4-Yl]Amino}Pyridin-2-Yl)-2-Methyl-2,8-Diazaspiro[4.5]Decane-8-Carboxamide]"
2,< 1,"Cc1nnc(-c2cc(Cl)ccc2F)cc1Nc1ccnc(NC(=O)CC2CCN(C)CC2)c1 [Example 157, N-(4-{[6-(5-Chloro-2-Fluorophenyl)-3-Methylpyridazin-4-Yl]Amino}Pyridin-2-Yl)-2-(1-Methylpiperidin-4-Yl)Acetamide]"
3,< 1,"Cc1nnc(-c2cc(Cl)ccc2F)cc1Nc1ccnc(NC(=O)CN2CCN(C)C3(CC3)C2)c1 [Example 144, N-(4-{[6-(5-Chloro-2-Fluorophenyl)-3-Methylpyridazin-4-Yl]Amino}Pyridin-2-Yl)-2-{4-Methyl-4,7-Diazaspiro[2.5]Octan-7-Yl}Acetamide]"
4,< 1,"Cc1nnc(-c2cc(C(F)F)ccc2F)cc1Nc1ccnc(NC(=O)CCN2CCN(C)CC2)c1 [Example 190, N-[4-({6-[5-(Difluoromethyl)-2-Fluorophenyl]-3-Methylpyridazin-4-Yl}Amino)Pyridin-2-Yl]-3-(4-Methylpiperazin-1-Yl)Propenamide]"
5,< 1,"Cc1nnc(-c2cc(Cl)ccc2F)cc1Nc1ccnc(NC(=O)[C@H]2C[C@@H](N3CCN(C)CC3)C2)c1 [Example 162, Cis N-(4-{[6-(5-Chloro-2-Fluorophenyl)-3-Methylpyridazin-4-Yl]Amino}Pyridin-2-Yl)-3-(4-Methylpiperazin-1-Yl)Cyclobutane-1-Carboxamide]"
6,< 1,Fc1ccc(Cl)cc1-c1cc(Nc2ccncc2)c(C(F)(F)F)nn1 [Example 181]
7,< 1,"CN1CCN(CC(=O)Nc2cc(Nc3cc(-c4cc(Cl)ccc4F)nnc3CO)ccn2)CC1 [Example 176, N-(4-{[6-(5-chloro-2-fluorophenyl)-3-(hydroxymethyl)pyridazin-4-yl]amino}pyridin-2-yl)-2-(4-methylpiperazin-1-yl)acetamide]"
8,< 1,"Cc1nnc(-c2cc(Cl)ccc2F)cc1Nc1ccnc(NC(=O)CN2CCNCC2)c1 [Example 164, N-(4-{[6-(5-Chloro-2-Fluorophenyl)-3-Methylpyridazin-4-Yl]Amino}Pyridin-2-Yl)-2-(Piperazin-1-Yl)Acetamide]"
9,< 1,"Cc1nnc(-c2cc(Cl)ccc2F)cc1Nc1ccnc(NC(=O)CCN2CCOC3(CN(C)C3)C2)c1 [Example 147, N-(4-{[6-(5-chloro-2-fluorophenyl)-3-methylpyridazin-4-yl]amino}pyridin-2-yl)-3-{2-methyl-5-oxa-2,8-diazaspiro[3.5]nonan-8-yl}propanamide]"
